# Molecular target: human PD-L1 / Human PD-1 (Homo sapiens (Human), UniProt Q9NZQ7)
# Assay: Enzyme-Linked Immunosorbent Assay (ELISA), PD-1/PD-L1 binding
# Settings: plate-coated human PD-L1, biotinylated human PD-1
# Outline: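 Compound dilutions (1:5 series) competed with 0.3 μg/mL biotin-labelled human PD-1 for PD-L1 immobilised at […], for 1 h at 37 °C. Read-out was A450 after streptavidin-HRP and a 20 min TMB reaction, stopped with 2 N H2SO4.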
# Chain of human PD-L1 / Human PD-1 (Q9NZQ7 19-239): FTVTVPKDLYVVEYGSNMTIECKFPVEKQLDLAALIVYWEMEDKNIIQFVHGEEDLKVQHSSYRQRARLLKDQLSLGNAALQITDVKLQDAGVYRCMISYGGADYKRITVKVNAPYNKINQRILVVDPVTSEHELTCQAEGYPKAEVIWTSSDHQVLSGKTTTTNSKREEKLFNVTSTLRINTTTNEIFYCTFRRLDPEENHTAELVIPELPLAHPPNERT
row,SMILES,IC50 [nM]
1,Cc1c(OCCCN2CCC(O)CC2)cccc1-c1cccc2c1CCC2Oc1cc(OCc2cncc(C#N)c2)c(CN[C@H](C(=O)O)[C@@H](C)O)cc1Cl (stereo partly drawn),< 5
2,Cc1c(OCCCN[C@@H]2CCCC[C@@H]2O)cccc1-c1cccc2c1CC[C@@H]2Oc1cc(OCc2cncc(C#N)c2)c(CN[C@H](C(=O)O)[C@@H](C)O)cc1Cl,< 5
3,Cc1c(OCCCN2CCC(O)CC2)cccc1-c1cccc2c1CC[C@@H]2Oc1cc(OCc2cncc(C#N)c2)c(CN[C@H](C(=O)OC(C)(C)C)[C@@H](C)O)cc1Cl,5 to 500
4,N#Cc1cncc(COc2cc(O[C@H]3CCc4c(-c5cccc(OCCCN6CCC(O)CC6)c5Cl)cccc43)c(Cl)cc2CN[C@@H]2CCCC[C@@H]2O)c1,< 5
5,N#Cc1cncc(COc2cc(O[C@H]3CCc4c(-c5cccc(OCCCN6CCC(O)CC6)c5Cl)cccc43)c(Cl)cc2CNC(CO)CO)c1,< 5
6,Cc1c(OCCCNC[C@@H](O)CO)cccc1-c1cccc2c1CC[C@@H]2Oc1cc(OCc2cncc(C#N)c2)c(CN[C@H](C(=O)O)[C@@H](C)O)cc1Cl,< 5
7,C[C@@](CO)(NCc1cc(Cl)c(O[C@H]2CCc3c(-c4cccc(OCCCN5CC(O)C5)c4Cl)cccc32)cc1OCc1cncc(C#N)c1)C(=O)O,< 5
8,Cc1c(OCCCN2CCC(O)CC2)cccc1-c1cccc2c1CC[C@H]2Oc1cc(OCc2cncc(C#N)c2)c(CN[C@H](C(=O)O)[C@@H](C)O)cc1Cl,< 5
9,Cc1c(OCCCN2CCC(O)CC2)cccc1-c1cccc2c1CC[C@@H]2Oc1cc(OCCCN2CC[C@H](O)C2)c(CN[C@@H]2CCCC[C@@H]2O)cc1Cl,< 5
10,CCOc1cc(O[C@H]2CCc3c(-c4cccc(OCCCN5CC(O)C5)c4C)cccc32)c(Cl)cc1CN[C@@H](CO)C(=O)O,< 5
11,CCOc1cc(O[C@H]2CCc3c(-c4cccc(OCCCN5CCC(F)CC5)c4C)cccc32)c(Cl)cc1CN[C@@H](CO)C(=O)O,< 5
12,CCOc1cc(O[C@H]2CCc3c(-c4cccc(OCCCN5CC6(CC(O)C6)C5)c4C)cccc32)c(Cl)cc1CN[C@@H](CO)C(=O)O,< 5
13,Cc1c(OCCCN2CCC(F)CC2)cccc1-c1cccc2c1CC[C@@H]2Oc1cc(OCc2cncc(C(N)=O)c2)c(CN(C)CCC(=O)O)cc1Cl,< 5
14,CCOC(=O)CCN(C)Cc1cc(Cl)c(O[C@H]2CCc3c(-c4cccc(OCCCN5CCC5(C)C)c4C)cccc32)cc1OCC,5 to 500
15,CCOc1cc(O[C@H]2CCc3c(-c4cccc(OCCCN5CCC5(C)C)c4C)cccc32)c(Cl)cc1CN(C)CCC(=O)OC(C)(C)C,500 to 20000
16,CCOc1cc(O[C@H]2CCc3c(-c4cccc(OCCCN5CCC5(C)C)c4C)cccc32)c(Cl)cc1CNCCc1nnn[nH]1,5 to 500
17,CCOc1cc(O[C@H]2CCc3c(-c4cccc(OCCCN5CCC5(C)C)c4C)cccc32)c(Cl)cc1CNCCn1nn[nH]c1=O,5 to 500
18,CCOc1cc(O[C@H]2CCc3c(-c4cccc(OCCCN5CCC5(C)C)c4C)cccc32)c(Cl)cc1CN(CC)CCC(=O)OC,5 to 500
19,CCOc1cc(O[C@H]2CCc3c(-c4cccc(OCCCN5CCC5(C)C)c4C)cccc32)c(Cl)cc1CN(C)CCc1nnn[nH]1,5 to 500
20,CCOc1cc(O[C@H]2CCc3c(-c4cccc(OCCCN5CCC5(C)C)c4C)cccc32)c(Cl)cc1CN(C)CCn1nn[nH]c1=O,5 to 500
21,CCOc1cc(O[C@H]2CCc3c(-c4cccc(OCCCN5CCC5(C)C)c4C)cccc32)c(Cl)cc1CN(C)CCC(=O)OC(C)C,5 to 500
22,CCOc1cc(O[C@H]2CCc3c(-c4cccc(OCCCN5CCC5(C)C)c4C)cccc32)c(Cl)cc1CN(CC)CCC(=O)O,5 to 500
23,CCOc1cc(O[C@H]2CCc3c(-c4cccc(OCCCN5CCC5(C)C)c4C)cccc32)c(Cl)cc1CN(C)CCCC(=O)OC,5 to 500

row,SMILES,IC50 [nM]
1,CCOc1cc(O[C@H]2CCc3c(-c4cccc(OCCCN5CCC5(C)C)c4C)cccc32)c(Cl)cc1CN(C)CCCC(=O)O,< 5
2,CCOc1cc(O[C@H]2CCc3c(-c4cccc(OCCCN5CCC5(C)C)c4C)cccc32)c(Cl)cc1CN(C)CC(C)(C)C(=O)O,5 to 500
3,CCOc1cc(O[C@H]2CCc3c(-c4cccc(OCCCN5CCC5(C)C)c4C)cccc32)c(Cl)cc1CN(C)C(C)CC(=O)O (stereo partly drawn),5 to 500
4,CCOc1cc(O[C@H]2CCc3c(-c4cccc(OCCCN5CCC5(C)C)c4C)cccc32)c(Cl)cc1CNCCS(=O)(=O)O,5 to 500
5,CCOc1cc(O[C@@H]2CCc3c(-c4cccc(OCCCN5CCC5(C)C)c4C)cccc32)c(Cl)cc1CN(C)CCC(=O)O,500 to 20000
6,CCOc1cc(O[C@H]2CCc3c(-c4cccc(OCCCN5CCC5(C)C)c4C)cccc32)c(Cl)cc1CN(C)CC(C)C(=O)OC (stereo partly drawn),500 to 20000
7,CCOc1cc(O[C@H]2CCc3c(-c4cccc(OCCCN5CCC5(C)C)c4C)cccc32)c(Cl)cc1CN(CCC(=O)O)C(C)C,5 to 500
8,CCOc1cc(O[C@H]2CCc3c(-c4cccc(OCCCN5CCC5(C)C)c4C)cccc32)c(Cl)cc1CN(C)CC(C)C(=O)O (stereo partly drawn),5 to 500
9,CCOc1cc(O[C@H]2CCc3c(-c4cccc(OCCCN5CCC5(C)C)c4C)cccc32)c(Cl)cc1CN1CC[C@@H](C(=O)OC)C1,5 to 500
10,CCOc1cc(O[C@H]2CCc3c(-c4cccc(OCCCN5CCC5(C)C)c4C)cccc32)c(Cl)cc1CN1CC[C@H](C(=O)OC)C1,5 to 500
11,Cc1c(OCCCN2CCC(F)CC2)cccc1-c1cccc2c1CC[C@@H]2Oc1cc(OCc2cncc(C#N)c2)c(CNCCS(=O)(=O)O)cc1Cl,< 5
12,CCOc1cc(O[C@H]2CCc3c(-c4cccc(OCCCN5CCC5(C)C)c4C)cccc32)c(Cl)cc1CN1CC[C@@H](C(=O)O)C1,5 to 500
13,CCOc1cc(O[C@H]2CCc3c(-c4cccc(OCCCN5CCC5(C)C)c4C)cccc32)c(Cl)cc1CNCCB(O)O,5 to 500
14,CCOc1cc(O[C@H]2CCc3c(-c4cccc(OCCCN5CCC5(C)C)c4C)cccc32)c(Cl)cc1CN(C)CCCCC(=O)OC,5 to 500
15,CCOc1cc(O[C@H]2CCc3c(-c4cccc(OCCCN5CCC5(C)C)c4C)cccc32)c(Cl)cc1CNCCCS(=O)(=O)O,5 to 500
16,CCOc1cc(O[C@H]2CCc3c(-c4cccc(OCCCN5CCC5(C)C)c4C)cccc32)c(Cl)cc1CN(C)CCCCC(=O)O,5 to 500
17,N#Cc1cncc(COc2cc(O[C@H]3CCc4c(-c5cccc(OCCCN6CCC(F)CC6)c5Cl)cccc43)c(Cl)cc2CN[C@@H]2CCOC[C@H]2F)c1 [drawing 223],5 to 500
18,N#Cc1cncc(COc2cc(O[C@H]3CCc4c(-c5cccc(OCCCN6CCC(F)CC6)c5Cl)cccc43)c(Cl)cc2CN[C@@H]2CCOC[C@H]2F)c1 [drawing 224],5 to 500
19,Cc1c(OCCCN2CCC(F)CC2)cccc1-c1cccc2c1CC[C@@H]2Oc1cc(OCc2cc(C#N)cc(C#N)c2)c(CN[C@H]2CCNC2=O)cc1Cl [drawing 306],5 to 500
20,Cc1c(OCCCN2CCC(F)CC2)cccc1-c1cccc2c1CC[C@@H]2Oc1cc(OCc2cc(C#N)cc(C#N)c2)c(CN[C@H]2CCNC2=O)cc1Cl [drawing 345],5 to 500
21,CCOc1cc(O[C@H]2CCc3c(-c4cccc(OCCCN5CCCC5(C)C)c4C)cccc32)c(Cl)cc1CNC[C@@H]1CCC(=O)N1 [drawing 377],5 to 500
22,CCOc1cc(O[C@H]2CCc3c(-c4cccc(OCCCN5CCCC5(C)C)c4C)cccc32)c(Cl)cc1CNC[C@@H]1CCC(=O)N1 [drawing 395],< 5
